Laboratory results: patent publication US20130123201A1, “MODULATION OF CYTOKINE-INDUCED CHRONIC INFLAMMATORY RESPONSES” (UNIVERSITY OF MANITOBA, priority 2010, published 2013)
No end group written: not given here.

Columns and labels:
Format in all cases: cell-based
[1] = test system: human monocytic THP-1 cells; test: AHA labeling, affinity purification and iTRAQ quantitative proteomics of nascent proteins; conditions: AHA-labeled THP-1 cells, cytokine 10 ng/ml, 4 hr, vs un-stimulated cells
Procedure: (§1) AHA labeling, biotin tagging of nascent proteins, and affinity purification: Cells were washed with warm D-PBS, and cultured in methionine-free, serum-free RPMI media at 37° C. 5% CO2 for 60 min. […] TC supernatants were monitored for the production of IL-8 by ELISA. Metabolic labeling of the cells with AHA reagent in the presence of the cytokine stimulants would result in induced nascent proteins with azide-bearing functional group, thus making them distinct from pool of pre-existing cellular proteins. Also these functional groups were further used to tag the nascent proteins with a biotin-alkyne reagent as follows. The cells were washed with D-PBS, followed by preparing cell lysates in lysis buffer containing 50 mM Tris-HCl, 1% SDS, 250 U/ml of benzonase nuclease and protease and phosphatase inhibitor cocktails (Sigma-Aldrich Canada Inc.). Total protein was estimated in the cell lysates using micro BCA analysis. Equivalent amount of total protein from each sample was acetone precipitated and then treated with Click-iT® Biotin-alkyne reagent (Invitrogen Canada Inc.) per the manufacturer's instructions. The biotin-alkyne reagent thus covalently coupled to the reactive azide group of the AHA-modified proteins was used to subsequently enrich the nascent proteins by affinity purification using Ultralink® Immobilized NeutrAvidin® resin (Ultralink and NeutrAvidin are registered trademarks of Pierce Biotechnology Inc, Rockford, Ill., USA), and the bound proteins were eluted using 6 M guanidinium hydrochloride.
Quantitative proteomics employing isobaric tag for relative and absolute quantitation (iTRAQ): Amine-modifying iTRAQ™ reagents multiplex kit (Applied Biosystems, Foster City, Calif., USA) was employed for relative quantitation of purified nascent proteins. Affinity purified eluates were acetone precipitated at −20° C. overnight. Proteins were dissolved in 20 μl of iTRAQ dissolution buffer (Applied Biosystems) and further processed as per the manufacturer's instructions. Briefly, proteins were reduced and the cysteines blocked using the reagents in kit, followed by digestion of the protein samples with provided trypsin solution overnight at 37° C. […] The contents from each of the iTRAQ reagent-labeled sample was combined together and processed for nanoflow liquid chromatography coupled to tandem mass spectrometry (LC-MS/MS).
The AHA-containing nascent proteins enriched by affinity purification were quantitated using isobaric iTRAQ quantitative proteomics reagents. This was done to identify and estimative the relative abundance of nascent proteins enriched in the cytokine-treated samples compared to un-stimulated cells. […] Samples from four independent experiments were individually examined by LC-MS/MS. Peptides identified with 95% confidence were selected for further analysis. The mass spectrometry data was analyzed using Global Proteome Machine (GPM-http://www.thegpm.org/).

[2] = test system: human monocytic THP-1 cells; test: Cellular cytotoxicity by LDH release
Procedure: Human monocytic THP-1 (ATCC® TIB-202; ATCC is a registered trademark of the American Type Culture Collection, Manassas, Va., USA) cells were cultured in RPMI-1640 media containing 2 mM L-glutamine and 1 mM sodium pyruvate (referred to as complete RPMI media from here on), supplemented with 10% (v/v) FBS, and maintained in a humidified incubator at 37° C. and 5% CO2. […] Cellular cytotoxicity was evaluated after 24 hr stimulation with the various stimulants used in this study by monitoring the release of lactate dehydrogenase (LDH) employing a colorimetric detection kit (Roche Diagnostics, Laval, QC, Canada) Human monocytic THP-1 (ATCC® TIB-202) cells and Jurkat T-cell line (ATCC® TIB-152) were cultured in RPMI-1640 media containing 2 mM L-glutamine and 1 mM sodium pyruvate, supplemented with 10% (v/v) FBS, and maintained in a humidified incubator at 37° C. and 5% CO2. […] Cellular cytotoxicity was evaluated after AHA labeling and upon stimulation with the various cytokines for all the cell types used in this study by monitoring the release of lactate dehydrogenase (LDH) employing a colorimetric detection kit (Roche Diagnostics, Laval, QC, Canada).

[3] = test system: Human THP-1 monocytic cells; test: qRT-PCR kinetics of cytokine-induced gene expression of identified candidates
Text: Quantitative real-time PCR (qRT-PCR): RNA was isolated using the Qiagen RNeasy® kit as per the manufacturer's instructions (Rneasy is a registered trademark of Qiagen GmbH, Hilden, Fed. Rep. Germany). Gene expression was subsequently analyzed by qRT-PCR using SuperScript® III Platinum Two-Step qRT-PCR Kit with SYBR Green (SuperScript is a registered trademark of Invitrogen Corp., Carlsbad, Calif., USA), according to the manufacturer's instructions, in the ABI PRISM® 7300 sequence detection system (BI PRISM is a registered trademark of Applera Corp., Foster City, Calif., USA). Fold changes were calculated by the comparative Ct method as taught by Pfaffl (2001) after normalization with 18sRNA.

[4] = test system: AHA-labeled human monocytic THP-1 cells; test: ELISA of IL-8 production by AHA-labeled THP-1 cells; conditions: 10 ng/ml, 4 hr
Procedure: as §1, with “The biotin-alkyne reagent thus covalently coupled to the reactive azide group of the AHA-modified proteins was used to subsequently enrich the nascent proteins by affinity purification using Ultralink® Immobilized NeutrAvidin® resin (Ultralink and NeutrAvidin are registered trademarks of Pierce Biotechnology Inc, Rockford, Ill., USA), and the bound proteins were eluted using 6 M guanidinium hydrochloride.” left out

human PBMC = test: ELISA of IL-32-induced TNF-α and IL-1β production in PBMC (ex-vivo); conditions: for Effect on IL-32 induced pro-inflammatory protein production (FIG. 21 legend): peripheral blood mononuclear cells; for Effect on IL-32-induced TNF-α production: p<0.05
Text: In order to confirm these activities in a physiologically relevant system, we evaluated the impact of the peptide in an ex-vivo assay using human PBMC, because cells recruited from the circulation are a major component of inflammatory infiltrates. Venous blood was collected from healthy volunteers with informed consent in accordance to a protocol approved by the Institutional Review Board at the University of Manitoba. PBMC was isolated from blood following the teaching of Mookherjee et al. (2009, Systems biology evaluation of immune responses induced by human host defence peptide LL-37 in mononuclear cells. Mol. Biosyst. 5:483-496). PBMC were stimulated with chronic inflammatory cytokine IL-32 (20 ng/ml) in the presence and absence of 5 μM of peptides, LL-37 and its derivatives (Table 7) for 24 hr. The tissue culture supernatants were monitored for the production of pro-inflammatory cytokines TNF-α and IL-1β by ELISA. […] Results shown are an average of four independent biological experiments performed with cells isolated from blood of four different donors ±standard error.

[5] = test system: human T-cell Jurkat cell line; test: Cellular cytotoxicity by LDH release; conditions: human T-cell Jurkat cells
Procedure: (§2) Where indicated the THP-1 cells were differentiated to plastic-adherent macrophage-like cells by treatment with phorbol 12-myristate 13-acetate (PMA; Sigma-Aldrich Canada, Oakville ON) as taught by Mookherjee et al. (2006). A rabbit synoviocyte cell line HIG-82 (ATCC® CRL-1832) was cultured in Ham's F-12 growth medium containing glutamine supplemented with sodium pyruvate (referred to as complete F-12 media henceforth), containing 10% (v/v) FBS in a humidified incubator at 37° C. and 5% CO2. Confluent HIG-82 cells were trypsinized with 1:3 dilution of 0.5% trypsin-EDTA in Hanks' balanced salt solution. Cellular cytotoxicity was evaluated after AHA labeling and upon stimulation with the various cytokines for all the cell types used in this study by monitoring the release of lactate dehydrogenase (LDH) employing a colorimetric detection kit (Roche Diagnostics, Laval, QC, Canada). Recombinant human cytokines TNF-α and IL-1β were obtained from eBioscience, Inc (San Diego, Calif., USA).

[6] = test system: rabbit synovial fibroblast HIG-82 cell line; test: Cellular cytotoxicity by LDH release; conditions: HIG-82 synovial fibroblast cell line, within 4 hr
Procedure: as §2

[7] = test system: Human macrophage-like THP-1 cells; test: ELISA of cytokine/chemokine production in THP-1 tissue culture supernatants; conditions: macrophage-like THP-1 cells, IL-32 20 ng/mL, 24 hr
Procedure: ELISA immunoassay: Tissue culture supernatants were centrifuged at 1500× g for 5-7 min to obtain cell-free samples and the aliquots were stored at −20° C. until further use. Production of chemokine Gro-α was monitored in the tissue culture supernatants by ELISA employing human Gro-α DuoSet (R&D Systems Inc.) as per the manufacturer's instructions. Production of cytokine TNF-α was monitored in the tissue culture supernatants using specific antibody pairs from eBioscience, Inc., and production of IL-8 was monitored using specific antibody pairs from R&D Systems, Inc., as per the manufacturer's instructions. The concentration of the cytokines or chemokines in the tissue culture supernatants was evaluated by establishing a standard curve with serial dilutions of the recombinant human cytokines or chemokines as required.
ELISA immunoassay: Tissue culture supernatants were centrifuged at 1500× g for 5-7 min to obtain cell-free samples and the aliquots were stored at −20° C. until further use. Production of chemokine Gro-α was monitored in the tissue culture supernatants by ELISA employing human Gro-α DuoSet (R&D Systems Inc.) per the manufacturer's instructions. Production of cytokine TNF-α was monitored in the tissue culture supernatants using specific antibody pairs from eBioscience, Inc., and production of IL-8 was monitored using specific antibody pairs from R&D Systems, Inc., per the manufacturers' instructions. The concentrations of the cytokines or chemokines in the tissue culture supernatants were evaluated by establishing a standard curve with serial dilutions of the recombinant human cytokines or chemokines as required.
Impact of cationic peptide LL-37 and its synthetic derivatives on IL-32-induced protein production: Human macrophage-like THP-1 cells were stimulated with IL-32 (20 ng/mL) in the presence and absence of cationic peptide LL-37, tissues culture supernatants were monitored for the production of pro-inflammatory cytokines TNF-α and IL-1β, and chemokines after 24 hr of stimulation. […] As LL-37 suppressed IL-32-mediated pro-inflammatory responses, we also evaluated the impact of LL-37 derived synthetic peptides. […] No studies to data have explored the impact of these peptides in the context of chronic inflammation. […] This provides the data that supports further investigation of these peptide candidates as potential therapeutics for diseases characterized by chronic inflammation.

[8] = human PBMC, IL-32 20 ng/ml, 5 μM peptide, 24 hr

## IL-1β: Recombinant human cytokine IL-1β from eBioscience, used as stimulant
[1]
  Fold Change of nascent protein AIFM1: 1.2 fold
  Fold Change of nascent protein ALDOA: 1.5 fold
  Fold Change of nascent protein CALR: 1.0 fold
  Fold Change of nascent protein CAP1: 1.9 fold
  Fold Change of nascent protein CTPS: 1.5 fold
  Fold Change of nascent protein DDX17: 2.2 fold
  Fold Change of nascent protein EIFA3: 1.2 fold
  Fold Change of nascent protein HMGN1: 1.5 fold
  Fold Change of nascent protein HSPA4: 1.1 fold
  Fold Change of nascent protein LCP1: 1.5 fold
  Fold Change of nascent protein PRTN3: 0.8 fold
  Fold Change of nascent protein PSME2: 2.3 fold
  Fold Change of nascent protein PYGL: 1.7 fold
  Fold Change of nascent protein RAB14: 1.2 fold
  Fold Change of nascent protein SEC22B: 1.6 fold
  Fold Change of nascent protein VDAC3: 1.1 fold
[2]; AHA-labeled THP-1 cells, cytokine 10 ng/ml, 4 hr, data not shown
  Cytotoxicity of cytokine treatment (LDH release): not cytotoxic
[3]
  Up-regulation of gene expression of PYGL: 1.5 fold
[3]; p≦0.01
  Up-regulation of gene expression of RAB14 and Eifa3: ≥ 1.5 fold
[4]
  IL-8 production upon IL-1β stimulation compared to cells stimulated with TNF-α: more than 2 fold
[4]; p<0.001
  Production of IL-8: significant

## RK-25: LL-37-derived synthetic peptide, SEQ ID NO: 24, RKSKEKIGKEFKRIVQRIKDFLRNL-NH2
Human PBMC
  Effect on IL-32 induced pro-inflammatory protein production (FIG. 21 legend): suppression

## [N-]=[N+]=NCC[C@H](N)C(=O)O [AHA, L-azidohomoalanine]
[5]
  Cytotoxicity of AHA labeling (LDH release): not cytotoxic
[6]
  Cytotoxicity of AHA labeling (LDH release): cytotoxic
[2]; human monocytic THP-1 cells
  Cytotoxicity of AHA labeling (LDH release): not cytotoxic

## IG-25: LL-37-derived synthetic peptide, SEQ ID NO: 22, IGKEFKRIVQRIKDFLRNLVPRTES-NH2
[7]
  Effect on IL-32-induced IL-1β production: significantly suppressed
  Effect on IL-32-induced TNF-α production: significantly suppressed
  Effect on IL-32-induced chemokine production (IL-8, GROα): did not completely neutralize
Human PBMC; [8]
  Suppression of IL-32-induced TNF-α production: > 90%
  Effect on IL-32-induced TNF-α production: neutralized
Human PBMC
  Effect on IL-32 induced pro-inflammatory protein production (FIG. 21 legend): suppression

## IG-19: LL-37-derived synthetic peptide, SEQ ID NO: 23, IGKEFKRIVQRIKDFLRNL-NH2
[7]
  Effect on IL-32-induced IL-1β production: significantly suppressed
  Effect on IL-32-induced TNF-α production: significantly suppressed
  Effect on IL-32-induced chemokine production (IL-8, GROα): did not completely neutralize
Human PBMC; [8]
  Effect on IL-32-induced IL-1β production: neutralized
  Effect on IL-32-induced TNF-α production: neutralized
Human PBMC
  Effect on IL-32 induced pro-inflammatory protein production (FIG. 21 legend): suppression
